Assay results reported in patent US20240139185A1, “COMPOUNDS THAT PARTICIPATE IN COOPERATIVE BINDING AND USES THEREOF” (Revolution Medicines, Inc., priority 2018, published 2024).
Where two headings read alike, the source gives them in different places.

How the values were obtained:
cyclophilin A (CYPA) = cyclophilin A (CYPA) (Homo sapiens, UniProt P62937); experiment: CYPA-compound binary complex formation by SPR; settings: read-out: CYPA Binding Affinity
Procedure, shortened: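 CypA-Avi captured on a Biotin CAPture chip (4 μg/ml), reference flow cell subtracted. Compounds injected as 10-point 2-fold dilutions from 50 μM in HBS-P+ pH7.4 with 2% DMSO; 60 s association and 60 s dissociation, solvent-corrected. Affinity obtained by steady-state fitting.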

[1] = target: T1, BRAF-GTP-KRAS-G12C complex (Homo sapiens, UniProt P01116+P62937, G12C); experiment: KRAS-BRAF complex disruption through competition with CYPA-compound by TR-FRET; settings: biochemical BRAF-KRAS G12C-GTP disruption assay EC50, with CYPA
T1 construct: 50 nM of His6-KRas G12C-GTP (1-169); 500 nM of tagless CypA (1-165)
Procedure, shortened: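 His6-KRAS G12C-GTP (1-169, 50 nM) with tagless CypA (1-165, 500 nM) was incubated with compound for 3 h at room temperature in pH 7.3 Hepes/NaCl/MgCl2 buffer containing GST-BRAF RBD. Anti-His Eu (10 nM) and anti-GST APC (50 nM) were then added for 1.5 h, and the 665/615 nm TR-FRET ratio was read. EC50 from 4-parameter fit; for specificity, wild-type KRAS replaced G12C, and CypA was omitted to test presenter dependence.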

pERK in H358 cells = experiment: pERK inhibition in H358 cells; assay type: cell-based, human; settings: read-out: Cellular pERK inhibition
Procedure, shortened: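 Human lung cancer H358 cells in RPMI/10% FBS were exposed to compound or DMSO for 4 h. Fixed and permeabilized cells were stained overnight at 4 C with anti-phospho-ERK1/2 (Thr202/Tyr204). Near-infrared imaging read the pERK signal at 800 nm, with DRAQ5 at 700 nm.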

Row | Kd (cyclophilin A (CYPA)) | EC50 [1] | IC50 (pERK in H358 cells; 4 hours treatment) | IC50 (pERK in H358 cells; Homo sapiens, NCI-H358, 4 hours treatment) | SMILES
1 | 5 to 15 µM | ≤ 0.5 µM | 1 to 10 µM | – | CC(C)C(C(=O)NC1Cc2cc(O)cc(c2)-c2ccc3c(C(C)(C)C#N)cn(c3c2)CC(C(F)F)COC(=O)C2CCCN(N2)C1=O)N(C)C(=O)C1CN(C(=O)CCl)C1 (single isomer, unassigned) [Compound 36]
2 | ≤ 5 µM | 0.5 to 5 µM | > 10 µM | – | CC(C)[C@@H](C(=O)N[C@H]1Cc2cc(O)cc(c2)-c2ccc3c(C(C)(C)C#N)cn(c3c2)C[C@H](C)COC(=O)[C@@H]2CCCN(N2)C1=O)N1CC[C@@H](NC(=O)CCl)C1=O [Compound 28]
3 | > 15 µM | ≤ 0.5 µM | ≤ 1 µM | – | CCc1cn2c3cc(ccc13)-c1cc(O)cc(c1)CC(NC(=O)C(C(C)C)N(C)C(=O)C1CN(C(=O)CCl)C1)C(=O)N1CCCC(N1)C(=O)OCC(C)(C)C2 (stereo not drawn) [Compound 99]
4 | 5 to 15 µM | ≤ 0.5 µM | > 10 µM | – | COCc1nc2ccc3cc2n1CC(C)(C)COC(=O)[C@@H]1CCCN(N1)C(=O)[C@@H](NC(=O)[C@H](C(C)C)N(C)C(=O)C1CN(C(=O)CCl)C1)Cc1cc(O)cc-3c1 [Compound 143]
5 | > 15 µM | ≤ 0.5 µM | > 10 µM | – | C=CC(=O)N1CCN([C@H](C(=O)N[C@H]2Cc3cc(O)cc(c3)-c3ccc4c(C)cn(c4c3)CC(C)(C)COC(=O)[C@@H]3CCCN(N3)C2=O)C(C)C)C1=O [Compound 97]
6 | 5 to 15 µM | 0.5 to 5 µM | > 10 µM | – | CC(C)[C@@H](C(=O)N[C@H]1Cc2cc(O)cc(c2)-c2cc3c(ccn3CC(C)(C)COC(=O)[C@@H]3CCCN(N3)C1=O)cn2)N(C)C(=O)C1CN(C(=O)CCl)C1 [Compound 178]
7 | 5 to 15 µM | ≤ 0.5 µM | > 10 µM | – | CC(C)[C@@H](C(=O)N[C@H]1Cc2cc(O)cc(c2)-c2ccc3c(C(C)(C)C#N)cn(c3c2)CC(CO)COC(=O)[C@@H]2CCCN(N2)C1=O)N(C)C(=O)C1CN(C(=O)CCl)C1 (single isomer, unassigned) [Compound 22]
8 | > 15 µM | > 5 µM | > 10 µM | – | C=CC(=O)N1CCN(C(C(=O)NC2Cc3cc(O)cc(c3)-c3ccc4c(C(C)(C)C#N)cn(c4c3)CC(C)(C)COC(=O)C3CCCN(N3)C2=O)C(C)C)C(=O)C1 (stereo not drawn) [Compound 14]
9 | > 15 µM | ≤ 0.5 µM | 1 to 10 µM | – | CC(C)[C@@H](C(=O)N[C@H]1Cc2cc(O)cc(c2)-c2ccc3c(-c4ccccc4F)cn(c3c2)CC(C)(C)COC(=O)[C@@H]2CCCN(N2)C1=O)N(C)C(=O)C1CN(C(=O)CCl)C1 [Compound 242]
10 | ≤ 5 µM | ≤ 0.5 µM | 1 to 10 µM | – | CC1COC(=O)C2CCCN(N2)C(=O)C(NC(=O)C(C(C)C)N(C)C(=O)C2CN(C(=O)CCl)C2)Cc2cc(O)cc(c2)-c2ccc3c(c2)N(C1)CC3(C)C#N (mixture of isomers) [Compound 224]
11 | ≤ 5 µM | ≤ 0.5 µM | – | > 10 µM | CC(C)[C@@H](C(=O)N[C@H]1Cc2cc(O)cc(c2)-c2ccc3c(C#N)cn(c3c2)CC(C)(C)CNC(=O)[C@@H]2CCCN(N2)C1=O)N(C)C(=O)C1CN(C(=O)CCl)C1 [Compound 3, 1-(2-chloroacetyl)-N-((2S)-1-(((6^3S,4S)-1^3-cyano-2^5-hydroxy-10,10-dimethyl-5,7-dioxo-6^1,6^2,6^3,6^4,6^5,6^6-hexahydro-1^1H-8-aza-1(6,1)-indola-6(1,3)-pyridazina-2(1,3)-benzenacycloundecaphane-4-yl)amino)-3-methyl-1-oxobutan-2-yl)-N-methylazetidine-3-carboxamide]
12 | ≤ 5 µM | ≤ 0.5 µM | ≤ 1 µM | – | CC(C)[C@@H](C(=O)N[C@H]1Cc2cc(O)cc(c2)-c2ccc3c(c2)n(c(=O)n3C)CC(C)(C)COC(=O)[C@@H]2CCCN(N2)C1=O)N(C)C(=O)C1CN(C(=O)CCl)C1 [Compound 189]
13 | 5 to 15 µM | ≤ 0.5 µM | > 10 µM | – | CC(C)[C@@H](C(=O)N[C@H]1Cc2cc(O)cc(c2)-c2ccc3c(C(C)(C)C#N)cn(c3c2)CC(CC#N)COC(=O)[C@@H]2CCCN(N2)C1=O)N(C)C(=O)C1CN(C(=O)CCl)C1 (stereo partly drawn) [Compound 39]
14 | 5 to 15 µM | > 5 µM | > 10 µM | – | CCN1CCCN2C[C@H](C)COC(=O)[C@@H]3CCCN(N3)C(=O)[C@@H](NC(=O)[C@H](C(C)C)N(C)C(=O)C3CN(C(=O)CCl)C3)Cc3cc(O)cc(c3)-c3ccc1c2c3 [Compound 187]
15 | 5 to 15 µM | ≤ 0.5 µM | ≤ 1 µM | – | CC1COC(=O)C2CCCN(N2)C(=O)C(NC(=O)C(C(C)C)N(C)C(=O)C2CN(C(=O)CCl)C2)Cc2cc(O)cc(c2)-c2ccc3c(-c4cccc(C#N)c4)cn(c3c2)C1 (stereo not drawn) [Compound 46]
16 | 5 to 15 µM | 0.5 to 5 µM | 1 to 10 µM | – | C=CC(=O)N1CCN(C(=O)N(C)[C@H](C(=O)N[C@H]2Cc3cc(O)cc(c3)-c3ccc4c(C(C)(C)C#N)cn(c4c3)CC(C)(C)COC(=O)[C@@H]3CCCN(N3)C2=O)C(C)C)CC1 [Compound 344]

Row | Kd (cyclophilin A (CYPA)) | EC50 [1] | IC50 (pERK in H358 cells; 4 hours treatment) | IC50 (pERK in H358 cells; Homo sapiens, NCI-H358, 4 hours treatment) | SMILES
17 | > 15 µM | 0.5 to 5 µM | > 10 µM | – | CC1COC(=O)C2CCCN(N2)C(=O)C(NC(=O)C(C(C)C)N(C)C(=O)C2CN(C(=O)C(C)Cl)C2)Cc2cc(O)cc(c2)-c2ccc3c(C(C)(C)C#N)cn(c3c2)C1 (stereo not drawn) [Compound 18]
18 | ≤ 5 µM | ≤ 0.5 µM | ≤ 1 µM | – | CC(C)[C@@H](C(=O)N[C@H]1Cc2cc(O)cc(c2)-c2ccc3c(C(C)(C)C#N)c(C#N)n(c3c2)C[C@H](C)COC(=O)[C@@H]2CCCN(N2)C1=O)N(C)C(=O)C1CN(C(=O)CCl)C1 [Compound 85]
19 | 5 to 15 µM | ≤ 0.5 µM | > 10 µM | – | CC(C)[C@@H](C(=O)N[C@H]1Cc2cc(O)cc(c2)-c2ccc3nnn(c3c2)CC(C)(C)COC(=O)[C@@H]2CCCN(N2)C1=O)N(C)C(=O)C1CN(C(=O)CCl)C1 [Compound 175]
20 | > 15 µM | > 5 µM | > 10 µM | – | C=CC(=O)N1CCCC1C(=O)N(C)C(C(=O)NC1Cc2cc(O)cc(c2)-c2ccc3c(C(F)F)nn(c3c2)CC(C)COC(=O)C2CCCN(N2)C1=O)C(C)C (stereo not drawn) [Compound 205]
21 | > 15 µM | ≤ 0.5 µM | 1 to 10 µM | – | C=CC(=O)N1CCC(C(=O)N(C)C(C(=O)NC2Cc3cc(O)cc(c3)-c3ccc4c(c3)N(CC(C)(C)COC(=O)C3CCCN(N3)C2=O)CC4(C=CC#N)COC)C(C)C)C1 (stereo not drawn) [Compound 404]
22 | ≤ 5 µM | 0.5 to 5 µM | > 10 µM | – | CC(C)[C@@H](C(=O)N[C@H]1Cc2cc(O)cc(c2)-c2ccc3c(C#N)ccc(c3c2)OCCCOC(=O)[C@@H]2CCCN(N2)C1=O)N(C)C(=O)C1CN(C(=O)CCl)C1 [Compound 185]
23 | 5 to 15 µM | ≤ 0.5 µM | 1 to 10 µM | – | CC(C)C(C(=O)NC1Cc2cc(O)cc(c2)-c2ccc3c(C(C)(C)C#N)cn(c3c2)CC(CF)COC(=O)C2CCCN(N2)C1=O)N(C)C(=O)C1CN(C(=O)CCl)C1 (mixture of isomers) [Compound 34]
24 | 5 to 15 µM | 0.5 to 5 µM | > 10 µM | – | CC#CC(=O)N1CC2(CCN([C@H](C(=O)N[C@H]3Cc4cc(O)cc(c4)-c4ccc5c(C(C)(C)C#N)cn(c5c4)CC(C)(C)COC(=O)[C@@H]4CCCN(N4)C3=O)C(C)C)C2=O)C1 [Compound 259]
25 | ≤ 5 µM | ≤ 0.5 µM | 1 to 10 µM | – | CC(C)[C@@H](C(=O)N[C@H]1Cc2cc(O)cc(c2)-c2ccc3c4cc(C#N)ccc4n(c3c2)CC(C)(C)COC(=O)[C@@H]2CCCN(N2)C1=O)N(C)C(=O)C1CN(C(=O)CCl)C1 [Compound 68]
26 | ≤ 5 µM | ≤ 0.5 µM | 1 to 10 µM | – | CC1COC(=O)C2CCCN(N2)C(=O)C(NC(=O)C(C(C)C)N(C)C(=O)C2CN(C(=O)CCl)C2)Cc2cc(O)cc(c2)-c2ccc3c4c(n(c3c2)C1)CCC4C#N (mixture of isomers) [Compound 74]
27 | 5 to 15 µM | 0.5 to 5 µM | 1 to 10 µM | – | C=CC(=O)N1CC2(CCN(C(C(=O)NC3Cc4cc(O)cc(c4)-c4ccc5c(C(C)(C)C#N)cn(c5c4)CC(C)(C)COC(=O)C4CCCN(N4)C3=O)C(C)C)C2=O)C1 (stereo not drawn) [Compound 42]
28 | 5 to 15 µM | 0.5 to 5 µM | > 10 µM | – | CC(C)[C@@H](C(=O)N[C@H]1Cc2cc(O)cc(c2)-c2cc3c(ccc(C#N)c3s2)OCCCOC(=O)[C@@H]2CCCN(N2)C1=O)N(C)C(=O)C1CN(C(=O)CCl)C1 [Compound 172]
29 | ≤ 5 µM | ≤ 0.5 µM | 1 to 10 µM | – | CC(C)C(C(=O)NC1Cc2cc(O)cc(c2)-c2ccc3c(C(C)(C)C#N)cn(c3c2)CC(Cl)COC(=O)C2CCCN(N2)C1=O)N(C)C(=O)C1CN(C(=O)CCl)C1 (single isomer, unassigned) [Compound 41]
30 | 5 to 15 µM | 0.5 to 5 µM | > 10 µM | – | C=CC(=O)N1CCC(C(=O)N(C)C(C(=O)NC2Cc3cc(O)cc(c3)-c3ccc4c(-c5c(COC)noc5C)cn(c4c3)CC(C)(C)COC(=O)C3CCCN(N3)C2=O)C(C)C)C1 (stereo not drawn) [Compound 394]
31 | 5 to 15 µM | ≤ 0.5 µM | ≤ 1 µM | – | CC(C)C(C(=O)NC1Cc2cc(O)cc(c2)-c2ccc3c(C(C)(C)C#N)cn(c3c2)CC(C)(C)COC(=O)C2CCCN(N2)C1=O)N(C)C(=O)C1CCN(C(=O)CCl)C1 (stereo not drawn) [Compound 33]
